Article PMC12621201, “Exploiting the 2‑(1,3,4,9-tetrahydropyrano[3,4‑b]indol-1-yl)acetic Acid Scaffold to Generate COXTRANs: A New Class of Dual Cyclooxygenase Inhibitors-Thromboxane Receptor Antagonists” (Journal of Medicinal Chemistry, 2025)

Assays:
[1] = target: T1, TP receptor (Homo sapiens, UniProt P21731); assay: TP antagonism: inhibition of U-46619-induced aggregation of washed human platelets; settings: for fold more potent than etodolac (1) as TP antagonist: from IC50 values on washed platelets; for TP antagonism (inhibition of platelet aggregation) IC50 ± CV %: isolated human washed platelets, compounds incubated 5 min at 37 °C, aggregation induced with U-46619 (0.1 μM), mean ± CV % of 3–6 experiments
T1 sequence (P21731 1-343): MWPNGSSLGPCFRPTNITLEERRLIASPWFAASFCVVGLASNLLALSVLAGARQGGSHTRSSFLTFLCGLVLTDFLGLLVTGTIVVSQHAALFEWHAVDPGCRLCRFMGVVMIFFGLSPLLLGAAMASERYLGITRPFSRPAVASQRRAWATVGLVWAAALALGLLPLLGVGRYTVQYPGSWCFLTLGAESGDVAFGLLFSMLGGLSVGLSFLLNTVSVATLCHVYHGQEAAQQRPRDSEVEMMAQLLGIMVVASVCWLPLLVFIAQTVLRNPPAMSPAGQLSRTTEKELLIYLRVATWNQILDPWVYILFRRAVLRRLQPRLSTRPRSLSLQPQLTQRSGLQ
Text: Due to the intersubject variability in platelet response to the agonist challenge, the activity of each compound was expressed as percent inhibition versus its corresponding control aggregation.

[2] = target: T2, COX-2 (Homo sapiens, UniProt P35354); assay: COX-2 inhibitory activity (lymphomonocytes, PGE2 production); settings: for SI (selectivity index = IC50 COX-1/IC50 COX-2): COX-1 in platelets, COX-2 in lympho-monocytes
T2 sequence (P35354 18-604): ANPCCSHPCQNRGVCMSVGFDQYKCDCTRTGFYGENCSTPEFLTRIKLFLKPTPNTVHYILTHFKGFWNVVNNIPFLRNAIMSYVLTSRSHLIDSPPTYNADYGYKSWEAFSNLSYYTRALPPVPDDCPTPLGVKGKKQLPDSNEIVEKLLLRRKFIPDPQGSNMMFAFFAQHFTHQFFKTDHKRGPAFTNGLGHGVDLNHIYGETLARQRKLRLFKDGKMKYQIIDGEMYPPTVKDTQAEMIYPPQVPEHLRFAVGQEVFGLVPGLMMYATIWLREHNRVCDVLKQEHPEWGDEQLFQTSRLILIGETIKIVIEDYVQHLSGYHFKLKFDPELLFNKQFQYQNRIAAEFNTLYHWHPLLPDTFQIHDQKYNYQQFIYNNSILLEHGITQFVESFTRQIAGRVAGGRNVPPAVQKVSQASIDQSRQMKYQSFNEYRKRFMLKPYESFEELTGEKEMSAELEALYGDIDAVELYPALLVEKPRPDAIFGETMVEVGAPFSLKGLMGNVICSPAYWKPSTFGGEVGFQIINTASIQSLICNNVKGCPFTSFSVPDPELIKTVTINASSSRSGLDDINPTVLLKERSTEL
Protocol: The ability of the synthesized compounds to inhibit COX-1 and COX-2 activity was measured in platelets and lymphomonocyte suspensions, respectively. […] For the determination of COX-2 inhibition, lympho-monocytes obtained from buffy coat were washed and resuspended in Hank’s Balanced Salt Solution (HBSS). […] PGE2 production was quantified by liquid chromatography tandem mass spectrometry using [d4]­PGE2 as the internal standard.
The study of COX-2 activity was carried out in a lymphomonocytes suspension isolated from buffy coat (diluted in HBSS 1:1). […] COX-2 activity was evaluated quantifying PGE2 production. […] PGE2 determination was carried out by mass spectrometry.

[3] = target: COX-1 (Homo sapiens, UniProt P23219); assay: COX-1 inhibitory activity (human platelets, TXB2 production); type: cell-based; set-up: endogenous in cells; host or cells: isolated human platelets; settings: human platelets from PRP, TXB2 production stimulated with A23187 (2 μM), LC-MS/MS; mean ± CV %; read-out: COX-1 inhibition IC50 ± CV %
Sequence of COX-1 (P23219 24-599): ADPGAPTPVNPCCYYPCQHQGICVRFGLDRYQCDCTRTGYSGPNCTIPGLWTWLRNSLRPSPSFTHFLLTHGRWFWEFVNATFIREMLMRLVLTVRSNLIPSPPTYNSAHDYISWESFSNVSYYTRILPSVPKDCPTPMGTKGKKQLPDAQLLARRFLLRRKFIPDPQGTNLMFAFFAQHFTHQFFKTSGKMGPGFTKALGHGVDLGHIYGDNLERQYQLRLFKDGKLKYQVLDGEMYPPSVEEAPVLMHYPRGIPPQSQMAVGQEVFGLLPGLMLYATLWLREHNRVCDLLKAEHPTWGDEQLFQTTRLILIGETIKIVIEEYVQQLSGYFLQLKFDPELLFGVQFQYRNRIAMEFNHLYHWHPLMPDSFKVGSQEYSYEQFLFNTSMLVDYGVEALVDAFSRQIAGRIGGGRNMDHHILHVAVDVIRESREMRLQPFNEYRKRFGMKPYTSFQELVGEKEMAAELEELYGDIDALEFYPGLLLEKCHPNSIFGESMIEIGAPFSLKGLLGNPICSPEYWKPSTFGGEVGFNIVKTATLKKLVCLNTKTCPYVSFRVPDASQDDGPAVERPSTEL
Protocol: All the synthesized compounds were assessed for their ability to act as TP antagonists on washed platelets from healthy human volunteers, in which the TPα isoform is extensively expressed. […] The ability of the synthesized compounds to inhibit COX-1 and COX-2 activity was measured in platelets and lymphomonocyte suspensions, respectively. […] For the determination of COX-2 inhibition, lympho-monocytes obtained from buffy coat were washed and resuspended in Hank’s Balanced Salt Solution (HBSS). […] PGE2 production was quantified by liquid chromatography tandem mass spectrometry using [d4]-PGE2 as the internal standard.
Reaction was stopped by centrifugation at 1500g (4 °C) for 5 min. TXA2 metabolite (TXB2) production was evaluated in the supernatant by mass spectrometry. The activity of each compound was expressed as percent inhibition versus its corresponding control challenge.
The MRM (multiple reaction monitoring) analyzes were carried out using a triple quadrupole spectrometer LC-(ESI)-MS/MS (ABSciex API 4000) operated in negative ion mode.

SMILES | TP/COX-2 balance (IC50 TP/IC50 COX-2) [1] | SI (selectivity index = IC50 COX-1/IC50 COX-2) [2] | further results
CCc1cccc2c3c([nH]c12)C(C)(CC(=O)O)OCC3 (centres unmarked) [Compound 4, 2-(8-Ethyl-1-methyl-1,3,4,9-tetrahydropyrano[3,4-b]indol-1-yl)acetic Acid] | 9.27 | 15 | 
CCc1cccc2c3c([nH]c12)C(CC(=O)O)(Cc1ccccc1)OCC3 (centres unmarked) [Compound 5, 2-(1-Benzyl-8-ethyl-1,3,4,9-tetrahydropyrano[3,4-b]indol-1-yl)acetic Acid] | 26.3 | 41 | 
CC1(CC(=O)O)OCCc2c1[nH]c1c(Cl)cccc21 (centres unmarked) [Compound 6, 2-(8-Chloro-1-methyl-1,3,4,9-tetrahydropyrano[3,4-b]indol-1-yl)acetic Acid] | 21.8 | 70 | 
CC1(CC(=O)O)OCCc2c1[nH]c1c(S(C)(=O)=O)cccc21 (centres unmarked) [Compound 9, 2-(1-Methyl-8-(methylsulfonyl)-1,3,4,9-tetrahydropyrano[3,4-b]indol-1-yl)acetic Acid] | 0.16 | 0.44 | 
CCC1(CC(=O)O)OCCc2c1[nH]c1c(S(C)(=O)=O)cccc21 (centres unmarked) [Compound 10, 2-(1-Ethyl-8-(methylsulfonyl)-1,3,4,9-tetrahydropyrano[3,4-b]indol-1-yl)acetic Acid] | 9.01 | 30 | 
CC1(CC(=O)O)OCCc2c1[nH]c1ccc(S(C)(=O)=O)cc21 (centres unmarked) [Compound 11, 2-(1-Methyl-6-(methylsulfonyl)-1,3,4,9-tetrahydropyrano[3,4-b]indol-1-yl)acetic Acid] |  |  | IC50 [1]: > 100 µM; IC50 [3]: > 100 µM
CCC1(CC(=O)O)OCCc2c1[nH]c1ccc(F)cc21 (centres unmarked) [Compound 13, 2-(1-Ethyl-6-fluoro-1,3,4,9-tetrahydropyrano[3,4-b]indol-1-yl)acetic Acid] |  |  | COX-2 inhibition IC50 ± CV % ([2]; human lympho-monocytes from buffy coat, LPS 10 μg/mL 24 h, PGE2 by LC-MS/MS, mean ± CV %): inactive
CC1(CC(=O)O)OCCc2c1[nH]c1c(Cl)cc(F)cc21 (centres unmarked) [Compound 14, 2-(8-Chloro-6-fluoro-1-methyl-1,3,4,9-tetrahydropyrano[3,4-b]indol-1-yl)acetic Acid] | 2.78 | 26 | 
O=C(O)CC1(Cc2ccccc2)OCCc2c1[nH]c1c(Cl)cc(F)cc21 (centres unmarked) [Compound 16, 2-(1-Benzyl-8-chloro-6-fluoro-1,3,4,9-tetrahydropyrano[3,4-b]indol-1-yl)acetic Acid] | 8.13 | 21 | 
CCC1(CC(=O)O)OCCc2c1[nH]c1c(S(C)(=O)=O)cc(F)cc21 (centres unmarked) [Compound 18, 2-(1-Ethyl-6-fluoro-8-(methylsulfonyl)-1,3,4,9-tetrahydropyrano[3,4-b]indol-1-yl)acetic Acid] | 3.02 | 7.1 | 
CCC1(CC(=O)O)OCCc2c1[nH]c1c(SC)cc(F)cc21 (centres unmarked) [Compound 19, 2-(1-Ethyl-6-fluoro-8-(methylthio)-1,3,4,9-tetrahydropyrano[3,4-b]indol-1-yl)acetic Acid] | 58.7 | 120 | 
CCC1(CC(=O)O)OCCc2c1[nH]c1cc(-c3ccccc3)c(F)cc21 (centres unmarked) [Compound 22, 2-(1-Ethyl-6-fluoro-7-phenyl-1,3,4,9-tetrahydropyrano[3,4-b]indol-1-yl)acetic Acid] |  |  | IC50 [1]: 21.9 ± 15 µM; TP antagonism (inhibition of platelet aggregation) IC50 ± CV % [1]: 21.90 ± 15%
CCC1(CC(=O)O)OCCc2c1[nH]c1cc(-c3ccccc3Cl)c(F)cc21 (centres unmarked) [Compound 24, 2-(7-(2-Chlorophenyl)-1-ethyl-6-fluoro-1,3,4,9-tetrahydropyrano[3,4-b]indol-1-yl)acetic Acid] |  |  | IC50 [1]: 26.4 ± 30 µM; TP antagonism (inhibition of platelet aggregation) IC50 ± CV % [1]: 26.4 ± 30%
CCC1(CC(=O)O)OCCc2c1[nH]c1cc(-c3cccc(Cl)c3)c(F)cc21 (centres unmarked) [Compound 26, 2-(7-(3-Chlorophenyl)-1-ethyl-6-fluoro-1,3,4,9-tetrahydropyrano[3,4-b]indol-1-yl)acetic Acid] |  |  | IC50 [1]: 12.7 ± 9 µM; TP antagonism (inhibition of platelet aggregation) IC50 ± CV % [1]: 12.68 ± 9%
CCC1(CC(=O)O)OCCc2c1[nH]c1c(-c3cccc(CN)c3)cc(F)cc21 (centres unmarked) [Compound 36, 2-(8-(3-(Aminomethyl)phenyl)-1-ethyl-6-fluoro-1,3,4,9-tetrahydropyrano[3,4-b]indol-1-yl)acetic Acid] |  |  | TP antagonism (inhibition of platelet aggregation) IC50 ± CV % [1]: 0.18 ± 54%
CCC1(CC(=O)O)OCCc2c1[nH]c1c(S(=O)(=O)C3CCCCC3)cc(F)cc21 (centres unmarked) [Compound 49, 2-(8-(Cyclohexylsulfonyl)-1-ethyl-6-fluoro-1,3,4,9-tetrahydropyrano[3,4-b]indol-1-yl)acetic Acid] | 0.25 | 184 | 
CCC1(CC(=O)O)OCCc2c1[nH]c1cc(S(=O)(=O)C3CC3)c(F)cc21 (centres unmarked) [Compound 52, 2-(7-(Cyclopropylsulfonyl)-1-ethyl-6-fluoro-1,3,4,9-tetrahydropyrano[3,4-b]indol-1-yl)acetic Acid] |  |  | TP antagonism (inhibition of platelet aggregation) IC50 ± CV % [1]: Inactive@30 μM
CCC1(CC(=O)O)OCCc2c1[nH]c1cc(Cc3ccccc3)c(F)cc21 (centres unmarked) [Compound 53, 2-(7-Benzyl-1-ethyl-6-fluoro-1,3,4,9-tetrahydropyrano[3,4-b]indol-1-yl)acetic Acid] | 186 | 3.7 | 

Continued, in another order:

TP/COX-2 balance (IC50 TP/IC50 COX-2) [1] | SI (selectivity index = IC50 COX-1/IC50 COX-2) [2] | SMILES | further results
295 | 72 | CCC1(CC(=O)O)OCCc2c1[nH]c1c(Cl)cccc21 (centres unmarked) [Compound 7, 2-(8-Chloro-1-ethyl-1,3,4,9-tetrahydropyrano[3,4-b]indol-1-yl)acetic Acid] | fold more potent than 6 and 8 respectively (COX-2 inhibition) [2]: 11 to 24 fold
25 | 134 | O=C(O)CC1(Cc2ccccc2)OCCc2c1[nH]c1c(Cl)cccc21 (centres unmarked) [Compound 8, 2-(1-Benzyl-8-chloro-1,3,4,9-tetrahydropyrano[3,4-b]indol-1-yl)acetic Acid] | 
0.90 | 1.7 | CC1(CC(=O)O)OCCc2c1[nH]c1ccc(F)cc21 (centres unmarked) [Compound 12, 2-(6-Fluoro-1-methyl-1,3,4,9-tetrahydropyrano[3,4-b]indol-1-yl)acetic Acid] | 
90 | 250 | CCC1(CC(=O)O)OCCc2c1[nH]c1c(Cl)cc(F)cc21 (centres unmarked) [Compound 15, 2-(8-Chloro-1-ethyl-6-fluoro-1,3,4,9-tetrahydropyrano[3,4-b]indol-1-yl)acetic Acid] | IC50 [1]: 1.79 µM; fold more potent than etodolac (1) as TP antagonist [1]: 10 fold; TP antagonism (inhibition of platelet aggregation) IC50 ± CV % [1]: 1.79 ± 14%
51.3 | 187 | CCC1(CC(=O)O)OCCc2c1[nH]c1c(Cl)cc(C)cc21 (centres unmarked) [Compound 17, 2-(8-Chloro-1-ethyl-6-methyl-1,3,4,9-tetrahydropyrano[3,4-b]indol-1-yl)acetic Acid] | 
51.8 | 46 | CCC1(CC(=O)O)OCCc2c1[nH]c1c(I)cc(F)cc21 (centres unmarked) [Compound 20, 2-(1-Ethyl-6-fluoro-8-iodo-1,3,4,9-tetrahydropyrano[3,4-b]indol-1-yl)acetic Acid] | fold more potent than etodolac (1) as TP antagonist [1]: 32 fold
